This passage reports minimal effective concentration results from patent US11331369B2, “Endoparasitic depsipeptides” (Zoetis Services LLC, priority 2017, dated 2022).

Each structure is given as a SMILES string. Structures can show the parent of a compound that is named as a salt. Some results are limits rather than exact numbers.

For test [1], the system named is microfilariae of Dirofilaria immitis. Briefly: Dirofilaria immitis, Microfilaria (DiMF) In vitro Assay. The class given is cell-based. The following applies: 72 h, read-out: DiMF Minimum Effective Dose (MED), approximately 72 hours incubation, microfilariae assessed for survival or paralysis.
The test system of test [2] is third stage larvae of Haemonchus contortus. Nature of the test: Haemonchus contortus L3 (HcL3) Assay. The class given is cell-based. The note with it: 96 h, read-out: HcL3 Minimum Effective Dose (MED).

With `CC(C)C[C@H]1C(=O)O[C@H](Cc2ccc(Cn3ccc(N)n3)cc2)C(=O)N(C)[C@@H](CC(C)C)C(=O)O[C@H](C)C(=O)N(C)[C@@H](CC(C)C)C(=O)O[C@H](Cc2ccccc2)C(=O)N(C)[C@@H](CC(C)C)C(=O)O[C@H](C)C(=O)N1C` [Example 2-87, (3S,6R,9S,12R,15S,18R,21S,24R)-6-(4-((3-amino-1H-pyrazol-1-yl)methyl)benzyl)-18-benzyl-3,9,15,21-tetraisobutyl-4,10,12,16,22,24-hexamethyl-1,7,13,19-tetraoxa-4,10,16,22-tetraazacyclotetracosan-2,5,8,11,14,17,20,23-octaone], the minimal effective concentration was 0.001 to 0.01 µM in test [1] and 1 to 10 µM in test [2].

For the compound `CC(C)C[C@H]1C(=O)O[C@H](Cc2ccc(Cn3cc4c(n3)CCOC4)cc2)C(=O)N(C)[C@@H](CC(C)C)C(=O)O[C@H](C)C(=O)N(C)[C@@H](CC(C)C)C(=O)O[C@H](Cc2ccc(Cn3cc4c(n3)CCOC4)cc2)C(=O)N(C)[C@@H](CC(C)C)C(=O)O[C@H](C)C(=O)N1C` [Example 9-41, (3S,6R,9S,12R,15S,18R,21S,24R)-6,18-bis(4-((6,7-dihydropyrano[4,3-c]pyrazol-2(4H)-yl)methyl)benzyl)-3,9,15,21-tetraisobutyl-4,10,12,16,22,24-hexamethyl-1,7,13,19-tetraoxa-4,10,16,22-tetraazacyclotetracosan-2,5,8,11,14,17,20,23-octaone], the results for the minimal effective concentration in test [1] and in test [2] were 0.001 to 0.01 µM and 1 to 10 µM, respectively.

Turning to `CC(C)C[C@H]1C(=O)O[C@H](C)C(=O)N(C)[C@@H](CC(C)C)C(=O)O[C@H](Cc2ccccc2)C(=O)N(C)[C@@H](CC(C)C)C(=O)O[C@H](C)C(=O)N(C)[C@@H](CC(C)C)C(=O)O[C@@H](Cc2ccc(CN3CCC(F)(F)CC3)cc2)C(=O)N1C` [Example 10-3, (3S,6R,9S,12R,15S,18S,21S,24R)-6-benzyl-18-(4-((4,4-difluoropiperidin-1-yl)methyl)benzyl)-3,9,15,21-tetraisobutyl-4,10,12,16,22,24-hexamethyl-1,7,13,19-tetraoxa-4,10,16,22-tetraazacyclotetracosan-2,5,8,11,14,17,20,23-octaone], the minimal effective concentration in test [1] is 0.01 to 0.1 µM; in test [2], 1 to 10 µM.

Turning to `CC(C)C[C@H]1C(=O)O[C@H](Cc2ccc(Cn3nc(CO)cc3C3CC3)cc2)C(=O)N(C)[C@@H](CC(C)C)C(=O)O[C@H](C)C(=O)N(C)[C@@H](CC(C)C)C(=O)O[C@H](Cc2ccc(Cn3nc(C#N)cc3C#N)cc2)C(=O)N(C)[C@@H](CC(C)C)C(=O)O[C@H](C)C(=O)N1C` [Example 1a-10, 1-(4-(((2R,5S,8R,11S,14R,17S,20R,23S)-14-(4-((5-cyclopropyl-3-(hydroxymethyl)-1H-pyrazol-1-yl)methyl)benzyl)-5,11,17,23-tetraisobutyl-4,8,10,16,20,22-hexamethyl-3,6,9,12,15,18,21,24-octaoxo-1,7,13,19-tetraoxa-4,10,16,22-tetraazacyclotetracosan-2-yl)methyl)benzyl)-1H-pyrazole-3,5-dicarbonitrile], the minimal effective concentration in test [1] lay in the range of 0.001 to 0.01 µM; in test [2], 1 to 10 µM.

As for `CC(C)C[C@H]1C(=O)O[C@H](Cc2ccc(C(C)(C)n3cc([N+](=O)[O-])cn3)cc2)C(=O)N(C)[C@@H](CC(C)C)C(=O)O[C@H](C)C(=O)N(C)[C@@H](CC(C)C)C(=O)O[C@H](Cc2ccc(C(C)(C)n3cc([N+](=O)[O-])cn3)cc2)C(=O)N(C)[C@@H](CC(C)C)C(=O)O[C@H](C)C(=O)N1C` [Example 1c-7, (3S,6R,9S,12R,15S,18R,21S,24R)-3,9,15,21-tetraisobutyl-4,6,10,16,18,22-hexamethyl-12,24-bis(4-(2-(4-nitro-1H-pyrazol-1-yl)propan-2-yl)benzyl)-1,7,13,19-tetraoxa-4,10,16,22-tetraazacyclotetracosan-2,5,8,11,14,17,20,23-octaone], the minimal effective concentration in test [2] was at most 1 µM.

In the case of `Cc1cnn(C(C)(C)c2ccc(C[C@H]3OC(=O)[C@H](CC(C)C)N(C)C(=O)[C@@H](C)OC(=O)[C@H](CC(C)C)N(C)C(=O)[C@@H](Cc4ccc(C(C)(C)n5cc(C)cn5)cc4)OC(=O)[C@H](CC(C)C)N(C)C(=O)[C@@H](C)OC(=O)[C@H](CC(C)C)N(C)C3=O)cc2)c1` [Example 1c-9, (3S,6R,9S,12R,15S,18R,21S,24R)-3,9,15,21-tetraisobutyl-4,6,10,16,18,22-hexamethyl-12,24-bis(4-(2-(4-methyl-1H-pyrazol-1-yl)propan-2-yl)benzyl)-1,7,13,19-tetraoxa-4,10,16,22-tetraazacyclotetracosan-2,5,8,11,14,17,20,23-octaone], the minimal effective concentration in test [2] was at most 1 µM.

As to `CC(C)C[C@H]1C(=O)O[C@H](Cc2cccc(Cn3cc(Br)cn3)c2)C(=O)N(C)[C@@H](CC(C)C)C(=O)O[C@H](C)C(=O)N(C)[C@@H](CC(C)C)C(=O)O[C@H](Cc2ccc(Cn3cc(Br)cn3)cc2)C(=O)N(C)[C@@H](CC(C)C)C(=O)O[C@H](C)C(=O)N1C` [Example 3-3, (3S,6R,9S,12R,15S,18R,21S,24R)-6-[[3-[(4-bromopyrazol-1-yl)methyl]phenyl]methyl]-18-[[4-[(4-bromopyrazol-1-yl)methyl]phenyl]methyl]-3,9,15,21-tetraisobutyl-4,10,12,16,22,24-hexamethyl-1,7,13,19-tetraoxa-4,10,16,22-tetrazacyclotetracosane-2,5,8,11,14,17,20,23-octaone], the minimal effective concentration in test [2] fell in the range of 1 to 10 µM.

For `CC(C)C[C@H]1C(=O)O[C@H](Cc2ccc(C(C)(C)n3cc(Br)cn3)cc2)C(=O)N(C)[C@@H](CC(C)C)C(=O)O[C@H](C)C(=O)N(C)[C@@H](CC(C)C)C(=O)O[C@H](Cc2ccc(C(C)(C)n3cc(Br)cn3)cc2)C(=O)N(C)[C@@H](CC(C)C)C(=O)O[C@H](C)C(=O)N1C` [Example 1c-11, (3S,6R,9S,12R,15S,18R,21S,24R)-6,18-bis(4-(2-(4-bromo-1H-pyrazol-1-yl)propan-2-yl)benzyl)-3,9,15,21-tetraisobutyl-4,10,12,16,22,24-hexamethyl-1,7,13,19-tetraoxa-4,10,16,22-tetraazacyclotetracosan-2,5,8,11,14,17,20,23-octaone], the minimal effective concentration in test [2] was at most 1 µM.

In the case of `CC(C)C[C@H]1C(=O)O[C@H](Cc2ccc(Cn3cc(O)cn3)cc2)C(=O)N(C)[C@@H](CC(C)C)C(=O)O[C@H](C)C(=O)N(C)[C@@H](CC(C)C)C(=O)O[C@H](Cc2ccccc2)C(=O)N(C)[C@@H](CC(C)C)C(=O)O[C@H](C)C(=O)N1C` [Example 2-30, (3S,6R,9S,12R,15S,18R,21S,24R)-6-benzyl-18-(4-((4-hydroxy-1H-pyrazol-1-yl)methyl)benzyl)-3,9,15,21-tetraisobutyl-4,10,12,16,22,24-hexamethyl-1,7,13,19-tetraoxa-4,10,16,22-tetraazacyclotetracosan-2,5,8,11,14,17,20,23-octaone], in test [2], the minimal effective concentration was 1 to 10 µM.

Regarding `CC(C)C[C@H]1C(=O)O[C@H](Cc2ccc(Cn3cc(O)cn3)cc2)C(=O)N(C)[C@@H](CC(C)C)C(=O)O[C@H](C)C(=O)N(C)[C@@H](CC(C)C)C(=O)O[C@H](Cc2ccc(Cn3cc(O)cn3)cc2)C(=O)N(C)[C@@H](CC(C)C)C(=O)O[C@H](C)C(=O)N1C` [Example 1b-18, (3S,6R,9S,12R,15S,18R,21S,24R)-6,18-bis(4-((4-hydroxy-1H-pyrazol-1-yl)methyl)benzyl)-3,9,15,21-tetraisobutyl-4,10,12,16,22,24-hexamethyl-1,7,13,19-tetraoxa-4,10,16,22-tetraazacyclotetracosan-2,5,8,11,14,17,20,23-octaone], the minimal effective concentration in test [2] is at most 1 µM.

For the compound `CC(C)C[C@H]1C(=O)O[C@H](Cc2ccc(CN3CCNc4ccccc43)cc2)C(=O)N(C)[C@@H](CC(C)C)C(=O)O[C@H](C)C(=O)N(C)[C@@H](CC(C)C)C(=O)O[C@H](Cc2ccc(CN3CCNc4ccccc43)cc2)C(=O)N(C)[C@@H](CC(C)C)C(=O)O[C@H](C)C(=O)N1C` [Example 9-69, (3S,6R,9S,12R,15S,18R,21S,24R)-6,18-bis[[4-(3,4-dihydro-2H-quinoxalin-1-ylmethyl)phenyl]methyl]-3,9,15,21-tetraisobutyl-4,10,12,16,22,24-hexamethyl-1,7,13,19-tetraoxa-4,10,16,22-tetrazacyclotetracosane-2,5,8,11,14,17,20,23-octaone dihydrochloride], the minimal effective concentration in test [2] lay within 10 to 100 µM.

For `COc1cnn(Cc2ccc(C[C@H]3OC(=O)[C@H](CC(C)C)N(C)C(=O)[C@@H](C)OC(=O)[C@H](CC(C)C)N(C)C(=O)[C@@H](Cc4cccc(Cn5cc(OC)cn5)c4)OC(=O)[C@H](CC(C)C)N(C)C(=O)[C@@H](C)OC(=O)[C@H](CC(C)C)N(C)C3=O)cc2)c1` [Example 3-27, (3S,6R,9S,12R,15S,18R,21S,24R)-3,9,15,21-tetraisobutyl-6-(3-((4-methoxy-1H-pyrazol-1-yl)methyl)benzyl)-18-(4-((4-methoxy-1H-pyrazol-1-yl)methyl)benzyl)-4,10,12,16,22,24-hexamethyl-1,7,13,19-tetraoxa-4,10,16,22-tetraazacyclotetracosan-2,5,8,11,14,17,20,23-octaone], in test [2], the minimal effective concentration is 1 to 10 µM.

As to `Cc1cnn(Cc2ccc(C[C@H]3OC(=O)[C@H](CC(C)C)N(C)C(=O)[C@@H](C)OC(=O)[C@H](CC(C)C)N(C)C(=O)[C@@H](Cc4cccc(Cn5cc(C)cn5)c4)OC(=O)[C@H](CC(C)C)N(C)C(=O)[C@@H](C)OC(=O)[C@H](CC(C)C)N(C)C3=O)cc2)c1` [Example 3-2, (3S,6R,9S,12R,15S,18R,21S,24R)-3,9,15,21-tetraisobutyl-4,6,10,16,18,22-hexamethyl-12-[[3-[(4-methylpyrazol-1-yl)methyl]phenyl]methyl]-24-[[4-[(4-methylpyrazol-1-yl)methyl]phenyl]methyl]-1,7,13,19-tetraoxa-4,10,16,22-tetrazacyclotetracosane-2,5,8,11,14,17,20,23-octaone], in test [2], the minimal effective concentration was in the range of 1 to 10 µM.
